Data set [1] relates to Haemophilus influenzae (54A1218). As to the kind of experiment: Gerbil otitis media model, H. influenzae. The format is in vivo.
Data set [2] has as its system Klebsiella pneumonaie (53A0031). The experiment in a line: Murine systemic infection model, K. pneumoniae. The format is in vivo. The conditions noted are these: 96 h, oral, single agent, K. pneumoniae 53A0031, survival day 4.
The target in data set [3] is E. coli TEM-1 beta-lactamase (Escherichia coli, UniProt P62593). The experiment in a line: Beta-lactamase inhibitory activity at intestinal pH values. The format is biochemical.
E. coli TEM-1 beta-lactamase, sequence (P62593 24-286 limits assumed): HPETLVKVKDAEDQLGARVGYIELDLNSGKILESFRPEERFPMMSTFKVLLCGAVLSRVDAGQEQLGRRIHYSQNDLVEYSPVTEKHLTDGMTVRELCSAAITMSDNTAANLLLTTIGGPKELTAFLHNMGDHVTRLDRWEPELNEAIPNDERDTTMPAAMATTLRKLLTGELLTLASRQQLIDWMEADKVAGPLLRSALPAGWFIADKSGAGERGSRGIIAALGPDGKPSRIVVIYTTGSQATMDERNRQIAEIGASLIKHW
In data set [4] the test system is Staphylococcus aureus (01A0400). As to the kind of experiment: Murine systemic infection model, S. aureus. It counts as in vivo. The conditions noted are these: 96 h, oral, single agent, S. aureus 01A0400, survival day 4.
Data set [5] concerns Streptococcus pneumoniae (02J1095). As to the kind of experiment: Mouse pneumonia model, S. pneumoniae 02J1095. The conditions noted are these: 240 h, oral, single agent, survival day 10. It counts as in vivo.
Data set [6] can be described thus: Chemical (pH) stability in solution. It counts as physicochemical. Here is the method: Buffers were appropriately formulated to achieve the desired pH of each incubation. […] The temperature of the incubation was regulated with a 96-well heat block. Incubations were performed at 25° C. and 37° C. […] An apparent first-order half-life could then be estimated as ln 2/kd.

The nature of data set [7]: Portal vein studies in rats. It counts as in vivo. The conditions noted are these: portal vein cannulated rats; oral 100 mg/kg; 5, 15 and 30 minutes post dose; not detected, assay LLOQ. Here is the method: Portal Vein Studies in Rats: Systemic exposure of Prodrug 3 was also assessed in portal vein cannulated rats following oral administration of the prodrug at a dose of 100 mg/kg. Whole blood aliquots were stabilized in ice cold acid immediately upon sampling at 5, 15 and 30 minutes post dose. No levels of Prodrug 3 were detected in any of the samples (assay LLOQ of 100 ng/ml).

Data set [8] is described as follows: Prodrug 3 suspension stability (0.5% methylcellulose). The format is physicochemical. The conditions noted are these: for Potency (percent) in suspension: 1.51 mg/ml, un-buffered 0.5% methylcellulose, 25° C.
The next data set in a line: in vitro. The conditions noted are these: plasma. Here is the method:
The incubation consisted of 990 μl of plasma preincubated for 5 minutes at 37° C. in a 96-well heat block. The incubation was initiated with the addition of 10 μl of a 10 mM stock of compound in 100% methanol. Serial aliquots (100 μl) were removed and transferred to 200 μl of 75/25 acetonitrile/3% perchloric acid at 0, 1, 2, 5, 10, 20, 30, and 60 minutes. The samples were centrifuged, the supernatants transferred to injection vials, and 20 μl was injected onto the HPLC in-line with a LC/MS single quadropole mass spectrometer. The LC/MS system was run in the negative ion mode. […] The peak response at each time point was expressed as a percentage of that obtained at time=0. A degradation rate constant (kd) was obtained by regression of these percentages from time=0 minutes to […]. An apparent first-order half-life was then be estimated as ln 2/kd. These determinations were completed in duplicate and the average was reported as shown below.

Data set [9] concerns Haemophilus influenzae (54A1218). The experiment in a line: Murine systemic infection model, H. influenzae. It counts as in vivo. The conditions noted are these: 96 h, oral, single agent, H. influenzae 54A1218, survival day 4.
The test system of data set [10] is Eschericia coli (51A0257). As to the kind of experiment: Murine systemic infection model, E. coli. The format is in vivo. The conditions noted are these: Escherichia coli, 96 h, oral, single agent, E. coli 51A0257, survival day 4.
Data set [11] deals with Streptococcus pneumoniae (02J1016). The experiment in a line: Mouse pneumonia model, S. pneumoniae 02J1016. It counts as in vivo. The conditions noted are these: 240 h, oral, single agent, survival day 10.
In data set [12] the test system is Moraxella catarrhalis (87A1115). The experiment in a line: Murine systemic infection model, M. catarrhalis. It counts as in vivo. The conditions noted are these: 96 h, oral, single agent, M. catarrhalis 87A1115, survival day 4.
Data set [13] has as its target T1, BRO-2 β-lactamase (M. catarrhalis 87A1178 ATCC43617) (Moraxella catarrhalis, UniProt Q59514).
T1 sequence (Q59514 1-313 D293G): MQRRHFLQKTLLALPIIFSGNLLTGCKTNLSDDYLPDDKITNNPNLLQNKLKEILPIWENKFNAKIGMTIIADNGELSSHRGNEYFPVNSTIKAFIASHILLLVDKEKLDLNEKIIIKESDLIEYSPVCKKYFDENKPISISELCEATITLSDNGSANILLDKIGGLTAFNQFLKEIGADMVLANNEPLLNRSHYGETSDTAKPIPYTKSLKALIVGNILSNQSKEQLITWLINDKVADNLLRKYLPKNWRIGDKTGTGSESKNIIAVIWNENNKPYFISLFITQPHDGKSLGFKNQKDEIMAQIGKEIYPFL
The experiment in a line: β-lactamase inhibition in cell extracts, BRO-2. It counts as biochemical.

For data set [14] the following is noted: in vivo, cited from earlier work.
The conditions of data set [15]: clavulanate in the Augmentin suspension; room temperature, 10 days; cited from earlier work.
In data set [16] the test system is 21 penicillin-resistant strains of S. pneumoniae. As to the kind of experiment: microbe, parasite or virus in culture. The format is cell-based. The conditions noted are these: Streptococcus pneumoniae; some S. pneumoniae clinical isolates; read-out: MICs of strains with high-level resistance.
Another data set deals with BRO-1 and BRO-2 enzymes (Moraxella catarrhalis, UniProt Q59514). As to the kind of experiment: β-lactamases from 30 recent clinical isolates of M. catarrhalis. It counts as biochemical. The conditions noted are these: BRO-1 and BRO-2 enzymes from 30 recent clinical isolates of M. catarrhalis.
BRO-1 and BRO-2 enzymes, sequence (Q59514 whole entry): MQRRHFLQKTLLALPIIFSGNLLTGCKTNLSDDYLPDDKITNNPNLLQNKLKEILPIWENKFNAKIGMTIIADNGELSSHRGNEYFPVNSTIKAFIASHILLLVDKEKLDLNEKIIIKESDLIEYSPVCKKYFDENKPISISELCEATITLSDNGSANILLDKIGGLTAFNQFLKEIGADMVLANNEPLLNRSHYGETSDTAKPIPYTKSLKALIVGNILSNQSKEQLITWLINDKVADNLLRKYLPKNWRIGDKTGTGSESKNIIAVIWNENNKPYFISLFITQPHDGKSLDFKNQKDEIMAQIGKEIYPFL
The nature of data set [17]: Hepatic extraction, rat hepatocytes. It counts as in vitro ADME. From the text:
(§1) L. and A. Barve, 1998. Linear correlation of the fraction of oral dose absorbed of 64 drugs between humans and rats. Pharm. Res. 15:1792–1795.). Based upon this correlation, the rat was used to predict human absorption. […] Thus, oral bioavailability assessments in rats should correlate well with the fraction absorbed in humans.

A short description of data set [18]: Hepatic extraction, human hepatocytes. The format is in vitro ADME.
Text: as §1

Setting [19] is: buffer, pH 1.2, Half-life (Hours), solution stability.
Setting [20] is: buffer, pH 2.5, Half-life (Hours), solution stability.
Setting [21] is: buffer, pH 4, Half-life (Hours), solution stability.
Where [22] appears, read: buffer, pH 5, Half-life (Hours), solution stability.

≈ marks a conversion by molar mass, not a printed value. Marks after values point to notes of the source that are not given here. Where only a bound is given, the exact number is not on record here.

The term ED50 denotes the dose at which the effect has come halfway, by size or by number of responders. Read a low ED50 as greater potency. Broadly, the IC50 is the concentration at which inhibition is half-maximal. High values mean lower potency, low ones higher potency. For orientation: half-life means the time in which the quantity being followed falls by half. As to `C[C@H](OC(=O)c1ccccc1)OC(=O)[C@@H]1N2C(=O)[C@@H](CO)[C@H]2S(=O)(=O)C1(C)C` [Prodrug 3, 4-Thia-1-azabicyclo[3.2.0]heptane-2-carboxylic acid, 6-(hydroxymethyl)-3,3-dimethyl-7-oxo-, (1R)-1-(benzoyloxy)ethyl ester, 4,4-dioxide (2S, 5R, 6R)], the ED50 in [1] (Haemophilus influenzae, 96 h, oral, single agent, gerbil otitis media, H. influenzae 54A1218, bacterial clearance day 4) is more than 25 mg/kg; in [2], more than 25 mg/kg; in [4], more than 12.5 mg/kg; in [5], more than 25 mg/kg; in data set [9], more than 25 mg/kg; in [10] it was more than 100 mg/kg. For the same compound, the results for the ED50 in data set [11] and in [12] were more than 25 mg/kg and more than 100 mg/kg, respectively. Also, the values for the IC50 in data set [3] (pH 6.0) and in data set [3] (pH 7.0) were more than 100 µM and 2.2 µM, respectively. The “Half-life (Hours), solution stability” value in data set [6] (buffer, 100 μM, pH 1.2) was more than 24 h; in [6] (buffer, 100 μM, pH 2.5) it was more than 24 h; in data set [6] (buffer, 100 μM, pH 4), more than 24 h; in [6] (buffer, 100 μM, pH 5), more than 24 h. Moreover, the half-life at 100 μM in data set [6] (setting [19]) was more than 24 h; in data set [6] (setting [20]) it was more than 24 h; in [6] (setting [21]) it was more than 24 h; in data set [6] (setting [22]), more than 24 h; in [6] (buffer, pH 7, half-life of conversion of the prodrug to active inhibitor) it was 0.55 h; in [6] (solution half-life), 0.5 h. Besides, the half-life at 100 μM in the data set “in vitro” (dog) was 2.8 min; in “in vitro” (human), less than 2 min; in “in vitro” (monkey), 3.6 min; in the data set “in vitro” (mouse) it was 2.8 min; in “in vitro” (rat), less than 2 min. Moreover, in [7], the “levels of Prodrug 3 in portal vein blood” value was less than 100 ng/mL. Further, the “Potency (percent) in suspension” value in data set [8] (Day 3) is recorded as 103%; in data set [8] (Day 5), 98%; in [8] (Day 7) it was 104%; in data set [8] (Day 10, pH ~6.8 initially, 4.7 by day 10) it was 91*** percent. Besides, the “potency maintained in suspension” value in data set [8] (storage at room temperature for 10 days) was “greater than 90%”.
As to `O=C(O)[C@H]1/C(=C/CO)O[C@@H]2CC(=O)N21` [Clavulanate, lithium clavulanate], in data set [13], the IC50 was found to be 0.11 µM. In data set [14] (human), the “fraction that remains unabsorbed from the intestine” value was 40%. Moreover, in data set [14], the “fraction absorbed into circulation” value is recorded as 60%. Besides, the “Half-life (Hours), solution stability” value was 1.2 h in [6] (buffer, 100 μM, pH 2.5); more than 24 h in data set [6] (buffer, 100 μM, pH 4); more than 24 h in [6] (buffer, 100 μM, pH 5); more than 24 h in data set [6] (buffer, 100 μM, pH 6.5); more than 24 h in [6] (buffer, 100 μM, pH 7.4). Moreover, the half-life at 100 μM in [6] (setting [19]) was 0.6 h; in data set [6] (setting [20]), 0.9 h; in [6] (setting [21]), more than 24 h; in [6] (setting [22]) it was more than 24 h; in data set [6] (buffer, pH 6.5, Half-life (Hours), solution stability), more than 24 h; in data set [6] (buffer, pH 7.4, Half-life (Hours), solution stability) it was more than 24 h. The “potency retained in suspension” value in data set [15] is recorded as 40%.
For the compound `CC1(C)S[C@@H]2[C@H](NC(=O)[C@H](N)c3ccc(O)cc3)C(=O)N2[C@H]1C(=O)O` [Amoxicillin, amoxicillin], the MIC in [16] is 4 to 8 µg/mL (≈ 10.9 to 21.9 µM). The “outcome as a single agent” value in data set [1] (gerbil otitis media model) was “failed”. Moreover, the ED50 in [2] was more than 200 mg/kg; in data set [4] it was more than 100 mg/kg; in data set [5] it was 25 mg/kg; in data set [9], more than 100 mg/kg; in [10] it was more than 200 mg/kg; in data set [11] it was 3.3 mg/kg. In data set [12], this compound showed an ED50 of more than 100 mg/kg.
Compound `CC1(C)[C@H](C(=O)[O-])N2C(=O)[C@@H](CO)[C@H]2S1(=O)=O.[Na+]` [Na-HMPAS, 4-Thia-1-azabicyclo[3,2,0]heptane-2-carboxylic acid, 6-(hydroxymethyl)-3,3-dimethyl-7-oxo-, 4,4-dioxide, monosodium salt, (2S, 5R, 6R)] gave an IC50 at BRO-1 and BRO-2 enzymes of 0.19 µM. Moreover, the half-life at 100 μM in data set [6] (pH buffer, pH 1.2, pH 1.2, 25° C., 100 μM, read-out: Half-life (Hours), solution stability) was more than 24 h; in data set [6] (pH buffer, pH 1.2, pH 1.2, 37° C., 100 μM, read-out: Half-life (Hours), solution stability), more than 24 h; in [6] (pH buffer, pH 2.5, pH 2.5, 25° C., 100 μM, read-out: Half-life (Hours), solution stability), more than 24 h; in [6] (pH buffer, pH 2.5, pH 2.5, 37° C., 100 μM, read-out: Half-life (Hours), solution stability), more than 24 h; in data set [6] (pH buffer, pH 4, pH 4.0, 25° C., 100 μM, read-out: Half-life (Hours), solution stability), more than 24 h; in data set [6] (pH buffer, pH 4, pH 4.0, 37° C., 100 μM, read-out: Half-life (Hours), solution stability) it was more than 24 h. In addition, the half-life at 100 μM is more than 24 h in data set [6] (pH buffer, pH 5, pH 5.0, 25° C., 100 μM, read-out: Half-life (Hours), solution stability); more than 24 h in data set [6] (pH buffer, pH 5, pH 5.0, 37° C., 100 μM, read-out: Half-life (Hours), solution stability); more than 24 h in data set [6] (pH buffer, pH 6.5, pH 6.5, 25° C., 100 μM, read-out: Half-life (Hours), solution stability); more than 24 h in data set [6] (pH buffer, pH 6.5, pH 6.5, 37° C., 100 μM, read-out: Half-life (Hours), solution stability); more than 24 h in [6] (pH buffer, pH 7.4, pH 7.4, 25° C., 100 μM, read-out: Half-life (Hours), solution stability); more than 24 h in [6] (pH buffer, pH 7.4, pH 7.4, 37° C., 100 μM, read-out: Half-life (Hours), solution stability).
In turn, `CC1(C)[C@H](C(=O)O)N2C(=O)[C@@H](CO)[C@H]2S1(=O)=O` [Prodrug 6-β-HMPAS, 6-β-hydroxymethylpenicillanic acid sulfone] showed an IC50 in data set [13] of 0.32 µM. In addition, the hepatic extraction entry in data set [17] and in [18] was “minimal hepatic extraction” throughout.

These data come from patent US7091197B2, “Beta-lactamase inhibitor prodrug” (Pfizer Inc., priority 2002, dated 2006).
